Reference: paper PMC11013284, “Chemoselective Synthesis and Anti-Kinetoplastidal Properties of 2,6-Diaryl-4H-tetrahydro-thiopyran-4-one S-Oxides: Their Interplay in a Cascade of Redox Reactions from Diarylideneacetones” (Molecules, 2024)
Like-named read-outs stand apart in the source and are kept apart here.

Assays:
in vitro = settings: human, CC50 hMRC-5 (cytotoxicity)
[1] = tested on: Trypanosoma cruzi (Tulahuen CL2 β-galactosidase) amastigotes in hMRC-5SV2 cells; assay: T. cruzi intracellular amastigote assay (β-galactosidase/CPRG); type: cell-based; settings: Trypanosoma cruzi, TULAHUEN, 168 h, intracellular amastigotes, 7 days; read-out: IC50 T. cruzi intramacrophage amastigotes (converted)
Method in brief: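 Infected hMRC-5SV2 fibroblasts exposed 7 days to compound at 64, 16, 4, 1 and 0.25 μM. Parasite burden read as β-galactosidase cleavage of CPRG at 540 nm after 4 h at 37 °C. Percent growth reduction versus control wells, IC50 calculated.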

[2] = tested on: Trypanosoma brucei brucei trypomastigotes, suramin-sensitive strain (Squib 427); assay: T. b. brucei growth/viability assay (resazurin); type: cell-based; settings: Trypanosoma brucei, 72 h, 3 days
Protocol: After 3 days, parasite growth was assessed fluorimetrically following the addition of resazurin. After 24 h at 37 °C, fluorescence was measured (λex = 550 nm, λem = 590 nm). The results were expressed as a percentage reduction in parasite growth/viability compared to control wells, and a 50% inhibitory concentration (IC50) was calculated.

[3] = tested on: L. infantum (MHOM/MA(BE)/67) amastigotes in primary peritoneal mouse macrophages; assay: L. infantum intramacrophage amastigote assay (microscopic burden); type: cell-based, Leishmania infantum; settings: Leishmania infantum, Macrophage, 120 h, 5 days, mouse macrophages as host
Method in brief: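 Amastigotes in primary peritoneal mouse macrophages were exposed 5 days to 64, 16, 4, 1 and 0.25 μM compound. Amastigotes per macrophage counted microscopically; percent burden reduction versus untreated wells gave IC50.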

[4] = tested on: L. infantum (MHOM/MA(BE)/67) amastigotes in primary peritoneal mouse macrophages; set-up: method as in earlier work; settings: Table 1, preliminary study; cited from earlier work
[5] = tested on: Trypanosoma cruzi (Tulahuen CL2 β-galactosidase) amastigotes in hMRC-5SV2 cells; set-up: method as in earlier work; settings: Table 1, preliminary study; read-out: IC50 T. cruzi; cited from earlier work
[6] = tested on: Trypanosoma brucei brucei trypomastigotes, suramin-sensitive strain (Squib 427); set-up: method as in earlier work; settings: Table 1, preliminary study; read-out: IC50 T. b. brucei; cited from earlier work
murine macrophages = assay: Qualitative toxicity toward mouse macrophages; settings: concentration at which toxicity was observed; 64, 16 and 4 µM tested
Protocol: The cytotoxicity of compounds was evaluated toward human diploid embryonic lung fibroblast hMRC-5SV2 cells, derived from fetal lung tissue and first described in 1970. hMRC-5SV2 cells were cultured in 96-well plates with five concentrations of the compound (64, 16, 4, 1, and 0.25 μM). After 3 days of incubation, the cell viability was assessed fluorimetrically after the addition of resazurin, and fluorescence was measured (λex = 550 nm, λem = 590 nm). The results were expressed as a percentage reduction in cell growth/viability compared to control wells, and a 50% cytotoxic concentration (CC50) was calculated. The reference cytotoxic drugs were tamoxifen or ivermectin. Additionally, toxicity toward mouse macrophages was qualitatively observed. Three concentrations were included (64, 16, and 4 µM), and the range of toxicity was ranked from the least toxic to the most toxic compound.

## C=CCOc1ccc(OC)cc1/C=C/C(=O)/C=C/c1cc(OC)ccc1OCC=C [1n]
In vitro
  CC50 at 3 days: > 16000 nM
[1]
  IC50: 24200 nM
[2]
  IC50: 26600 nM
[3]
  IC50: > 64000 nM
other
  melting point: 83 °C

## O=C(/C=C/c1ccc(C(F)(F)F)cc1)/C=C/c1ccc(C(F)(F)F)cc1 [1r]
In vitro
  CC50 at 3 days: 26200 nM
[1]
  IC50: 1600 nM
[2]
  IC50: 200 nM
[3]
  IC50: > 64000 nM
[4]
  IC50: > 64000 nM

## O=C(/C=C/c1ccc(OC(F)(F)F)cc1)/C=C/c1ccc(OC(F)(F)F)cc1 [1s]
In vitro
  CC50 at 3 days: 32800 nM
[1]
  IC50: 1800 nM
[2]
  IC50: 500 nM
[3]
  IC50: > 64000 nM
[4]
  IC50: > 64000 nM

## Cl.Cl.O=C(/C=C/c1ccncc1)/C=C/c1ccncc1 [1y]
In vitro
  CC50 at 3 days: 1100 nM
[5]
  IC50: ≤ 300 nM
[1]
  IC50: ≤ 300 nM
[6]
  IC50: ≤ 300 nM
[2]
  IC50: ≤ 300 nM
[3]
  IC50: 1000 nM
Murine macrophages
  Toxicity (T) observed toward murine macrophages: T3 (T3 = 4)
